Results from patent publication US8119689B2, “Adjuvants on the basis of bisacyloxypropylcystene conjugates and derivatives and their uses in pharmaceutical compositions” (Helmholtz-Zentrum Fuer Infektionsforschung GmbH, priority 2005, dated 2012).
“Also recorded” adds a separate entry of the source.

Test system: β-gal antigen-specific IgG isotypes
Test: β-gal-specific IgG isotypes in sera of immunized mice (isotype ELISA)
Type: in vivo
Protocol: FIG. 8: FIG. 8 provides the analysis of beta-Gal specific IgG isotypes in sera of immunized mice. Anti-beta-Gal specific IgG isotypes of the groups immunized with PBS, (control) beta-Gal+either BPPcysGlyc4armPEG or BPPcysPEG (FIG. 8A) or BPPcysAda or Ada alone (FIG. 8B), or beta-Gal alone of mice immunized by the i.n. or s.c. route were determined by ELISA. Results are expressed as end point titers. IgG titers represent the mean of five animals per experimental group. Differences were statistically significant at p<0.05 (*) with respect to mice receiving antigen alone. One representative out of four independent experiments is shown. SEM is indicated by vertical lines.
Isotyp ELISA: 96-well Nunc-Immuno MaxiSorp assay plates (Nunc, Roskilde, Denmark) were coated with 100 μl of β-gal (Boehringer, Mannheim, Germany) at 5 μg/ml in 0.05 M carbonate buffer (pH 8.2) per well. Serial two-fold dilutions of sera or lavages in PBS with 1% BSA and 0.05% Tween 20 were added (100 μl/well), and plates incubated for 2 h at 37° C. After washing, biotin-conjugated rat anti-mouse IgG1 or IgG2a (Pharmingen, Hamburg, Germany) were added to determine IgG subclasses. Plates were incubated for an additional 1 h at 37° C. After four washes, 100 μl of peroxidase-conjugated streptavidin (Pharmingen) was added to cells and plates incubated at 37° C. for 30 min. After four washes, reactions were developed with ABTS in 0.1 M citrate-phosphate buffer (pH 4.35) containing 0.01% H2O2. To determine the concentration of IgG subclasses in serum, standard curves were obtained by coating the wells with an isotype-specific goat anti-mouse IgG, and then by incubating with purified mouse IgG1 or IgG2a antibodies (Dianova, Hamburg, Germany).

CCCCCCCCCCCCCCCC(=O)OCC(CSC[C@H](N)C(=O)N[C@H]1[C@@H](O)[C@H](n2cnc3c(N)ncnc32)O[C@@H]1CO)OC(=O)CCCCCCCCCCCCCCC (single isomer, unassigned) [BPPcysAda, S-[2,3-bis(palmitoyloxy)-(2S or 2R)-propyl]-L-cysteinylcarboxy-3′Amino-3′-deoxyadenosine]
antigen specific antibodies of the IgG1 subtype, intranasal (intranasal administration): significantly enhances; also recorded: strongly increased | antigen specific antibodies of the IgG2a isotype, intranasal (intranasal administration): significantly enhances; also recorded: strongly increased | expression of the IgG1 isotype, subcutaneous (subcutaneous administration): strongly increased | expression of the IgG2a isotype, subcutaneous (subcutaneous administration): strongly increased
